The source of these data is patent publication EP1222242B1, “CLEANING AGENTS WHICH CONTAIN SURFACTANTS AND ENZYME INHIBITORS” (Henkel Kommanditgesellschaft auf Aktien, priority 1999, dated 2001).

For experiment [1], the system named is Desquamation des Stratum corneum. Nature of the experiment: Desquamation test on human skin biopsies (detergent-induced corneocyte shedding, corneocyte count). In kind it is cell-based. The conditions noted are these: for Desquamation der Humanhaut (Korneozyten-Abschuppung): result in words over the tested concentration range. From the text: Aus frischen Humanhautexplantaten (aus Mammareduktion) wurden 8mm^2-große Hautstücke ausgestanzt und mit einer Mischung aus Detergentien (Na-Dodecylsulfat, N,N-Dimethyldodecylaminoxid) in Abwesenheit und in Gegenwart der Inhibitoren behandelt. Unter dem Einfluß der Detergentien wird eine verstärkte Abschuppung (Desquamation) der Homschicht (Stratum corneum) künstlich induziert, also die Ausbildung trockener Haut im Versuch nachgeahmt. Die Anzahl abgeschuppter Hornzellen (Korneozyten) wurde unter dem Mikroskop in einer Schilling-Zählkammer bestimmt. Eine Verringerung der Korneozytenzahl weist auf eine hemmende Wirkung der getesteten potentiellen Inhibitoren hin.
Die Inhibitoren wurden in den entsprechenden Konzentrationen (vgl. Tabellen der Beispiele 7-12) im Inkubationspuffer angesetzt. Dieser bestand aus 0,1 M TRIS-HCl-Puffer (pH 8) mit 0,1 Gew.% Na-Azid und den Detergenzien Na-Dodecylsulfat (0,2 mM) und N,N-Dimethyldodecylaminoxid (8 mM) sowie EDTA (5 mM). Diese Inkubationspufferlösungen mit variierender Konzentration des Inhibitors werden nachfolgend als Testlösungen bezeichnet.
Es wurden zwei Arten von Blindkontrollen durchgeführt, eine Positiv- und eine Negativkontrolle. Für die sogenannte Positivkontrolle wurde nur der Inkubationspuffer verwendet, d. h. ohne Zusatz der Inhibitoren. Für die sogenannte Negativkontrolle wurde eine 5 mM Lösung von EDTA in TRIS-HCl-Puffer eingesetzt, d. h. ohne Zusatz der Detergentien.
Pro Reaktionsansatz wurden 0,5 mL der jeweiligen Testlösung oder des für die Blindkontrollen verwendeten Puffergemisches in verschließbaren Reaktionsgefäßen vorgelegt. Alle Ansätze wurden in vierfacher Ausfertigung durchgeführt, um die Reproduzierbarkeit der Ergebnisse zu gewährleisten.
Die Humanhaut wurde nach der Explantation in einer trockenen, sterilen Petrischale auf Kühlakkus transportiert. Nach Entfernung des Unterhautfett- und des Bindegewebes wurden mit Hilfe von sterilen Stanzen 8 mm^2-große Hautstücke präpariert. Diese wurden 15-20 min in steriler, physiologischer NaCl (0,9 %) gewaschen, zu den Reaktionsansätzen gegeben (1 Hautstück/Reaktionsansatz) und 44 Stunden bei 37° C inkubiert.
Nach Beendigung der Inkubationsphase wurden die Reaktionsgefäße 30 Sekunden auf einem Vortex-Mixer geschüttelt, um noch lose anhaftende Komeozyten von den Hautstücken abzulösen. Die Hautstücke wurden entnommen und die verbleibende Dispersion wurde 8 Minuten bei 11.000U/min zentrifugiert, um die Korneozyten zu isolieren. Der detergenshaltige Überstand (0,4 mL) wurde verworfen und der Rückstand mit 0,4 ml Aqua dest. gewaschen. Nach nochmaligem Zentrifugieren wurde der Überstand (0.4 mL) wiederum verworfen, das verbleibende Zellpellet in 0,4 mL Aqua dest. aufgenommen und die abgelösten Korneozyten in einer Schillingzählkammer unter einem Lichtmikroskop ausgezählt.
Nachfolgende Tabellen geben eine Zusammenstellung über die Anzahl abgelöster Korneozyten: • nach Behandlung der Haut-Biopsien mit einem Detergentiengemisch in Abwesenheit der Inhibitoren (Positivkontrolle) • nach Behandlung der Haut-Biopsien mit einer Pufferlösung in Abwesenheit der Detergentien und Inhibitoren (Negativkontrolle) • nach Behandlung der Haut-Biopsien mit einem Detergentiengemisch, welches die Inhibitoren in variierender Konzentration enthält.

A further experiment addresses T1, Chymotrypsin (Bos taurus, UniProt P00766).
T1 construct: Chymotrypsin entsteht im Pankreas aus inaktiven Vorstufen, sogenannten Zymogenen, durch Einwirkung von Trypsin; purchased Sigma; host or cells: bovine pancreas (Rinderpankreas)
The experiment can be described thus: Chymotrypsin enzyme activity test (BTEE substrate, absorbance at 256 nm). In kind it is biochemical, Rind. The conditions noted are these: for Hemmung von Chymotrypsin: result in words over the tested concentration range. The source says:
(§1) Da die hauteigenen, am Desmosomenabbau beteiligten Proteasen nicht in ausreichender Menge zur Verfügung standen, dienten die Serin-Proteasen Trypsin und Chymotrypsin (Sigma) aus Rinderpankreas als Modellenzym, um die Hemmwirkung des erfindungsgemäß verwendeten Inhibitors N-CBZ-Gly-Pro-Phe-Pro-Leu, zu testen. Als Vergleich wurde auch das als t-PA-Inhibitor (tissue-type plasminogen activator) bekannte t-AMCHA [trans-4(Aminomethyl)-cyclohexancarbonsäure] getestet.
Der Nachweis der Chymotrypsin-Enzymaktivität erfolgt mit einer Modifikation analog zu den Angaben im Sigma Quality Control Test Procedure-Datenblatt für Chymotrypsin. Bei Ansätzen ohne Inhibitor wurden 1,42 mL Reagens A (80 mM Tris/HCl-Puffer, pH = 7,8; 25°C) zum Testansatz zugegeben. Bei Ansätzen mit Inhibitor wurden 1,32 mL Reagens A zum Testansatz zugegeben sowie 0,1 mL einer Lösung des entsprechenden Inhibitors in Reagens A (Konzentrationsreihe). Die Enzymaktivität wurde durch Umsetzung des Substrates N-Benzoyl-L-Tyrosinethylester (BTEE) zu N-Benzoyl-L-Tyrosin und Ethanol spektrophotometrisch bestimmt. Die Absorption des proteolytisch abgespaltenen N-Benzoyl-L-Tyrosins wird bei 256 nm gemessen.
(§2) Die Reaktionskinetiken wurden je 5 Minuten bei 25 °C detektiert, wobei der lineare Anstieg der Absorption (A) pro Zeiteinheit (t) ein Maß für die Aktivität des Enzyms (ΔA/Δt) ist. Die Aktivität des Enzyms in Abwesenheit eines Proteinase-Inhibitors, (ΔA1/Δt1 ), wurde auf 100% gesetzt. Unter analogen Bedingungen wurden die Aktivitäten in Gegenwart eines Inhibitors (ΔA2/Δt2) bestimmt. Die Hemmwirkung oder Minderung der Enzymaktivität entspricht dann: 100% - (ΔA2/Δt2 )/( ΔA1/Δt1)%.

Another experiment concerns the target T2, Trypsin (Bos taurus, UniProt P00760).
T2 construct: aus der vom Pankreas gebildeten Vorstufe Trypsinogen durch Abspaltung eines Hexapeptids entsteht; purchased Sigma; host or cells: bovine pancreas (Rinderpankreas)
T2 sequence (P00760 24-246): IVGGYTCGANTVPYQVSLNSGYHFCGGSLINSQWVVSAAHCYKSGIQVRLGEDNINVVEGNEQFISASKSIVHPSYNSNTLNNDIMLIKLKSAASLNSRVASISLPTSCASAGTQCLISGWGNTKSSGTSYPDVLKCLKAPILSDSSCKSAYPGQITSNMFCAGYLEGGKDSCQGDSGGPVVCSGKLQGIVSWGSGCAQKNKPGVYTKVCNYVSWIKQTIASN
Nature of the experiment: Trypsin enzyme activity test (BAPNA substrate, absorbance at 405 nm). In kind it is biochemical, Rind. The note with it: for Hemmung von Trypsin: result in words over the tested concentration range.
From the text: as §1
Auch der Nachweis der Trypsin-Enzymaktivität erfolgt mit einer Modifikation analog zu den Angaben im Sigma Quality Control Test Procedure-Datenblatt für Trypsin. Anstelle von Aprotinin (Reagens F) wurden hier die erfindungsgemäßen Inhibitoren eingesetzt. Hierfür wurde eine Konzentrationsreihe der Inhibitoren in Reagens E angesetzt. Die Enzymaktivität wurde durch Umsetzung des Substrates Nα-Benzoyl-DL-Arginin-p-Nitroanilin (BAPNA) zu Nα-Benzoyl-DL-Arginin und p-Nitroanilin spektrophotometrisch bestimmt. Die Absorption des proteolytisch abgespaltenen p-Nitroanilins wird bei 405 nm gemessen.
as §2

The mark [2] stands for this setting: inhibitor 0,1 % (w/v), corneocyte count, positive control = 100 %, 44 h, 37° C.
The mark [3] stands for this setting: inhibitor 0,5 % (w/v), corneocyte count, positive control = 100 %, 44 h, 37° C.
Setting [4] is: inhibitor concentration 0,03 % (w/v), 25 °C.
The mark [5] stands for this setting: Homo sapiens, pH 8, inhibitor 0,1 % (w/v), corneocyte count, positive control = 100 %, 44 h, 37° C, read-out: Desquamation an Humanhaut ex vivo.
The mark [6] stands for this setting: inhibitor concentration 0,01 % (w/v), 25 °C.
[7] abbreviates: inhibitor concentration 0,05 % (w/v), 25 °C.
Where [8] appears, read: inhibitor concentration 0,001 % (w/v), 25 °C.
[9] abbreviates: inhibitor concentration 0,005 % (w/v), 25 °C.
Setting [10] is: Homo sapiens, pH 8, inhibitor 0,5 % (w/v), corneocyte count, positive control = 100 %, 44 h, 37° C, read-out: Desquamation an Humanhaut ex vivo.
Setting [11] is: Homo sapiens, pH 8, inhibitor 1,0 % (w/v), corneocyte count, positive control = 100 %, 44 h, 37° C, read-out: Desquamation an Humanhaut ex vivo.

Each structure is given as a SMILES string. Entries after “also recorded” stand apart in the source; their conditions may differ. Where a SMILES comes first, the peptide text is derived from it. The star is where a group is joined. Cbz = O=C(OCc1ccccc1)*

For `CC(C)CC(NC(=O)C1CCCN1C(=O)C(Cc1ccccc1)NC(=O)C1CCCN1C(=O)CNC(=O)OCc1ccccc1)C(=O)O` (stereo not drawn) [N-CBZ-GPFPL, N-CBZ-Gly-Pro-Phe-Pro-Leu] (Cbz-GPFPL-OH; configuration not given here), the “Desquamation an Humanhaut ex vivo” value in experiment [1] (setting [2]) was found to be 93%; in experiment [1] (setting [3]), 51%. In experiment [1] (inhibitor 0,5 %, result in words), the “Reduktion der Abschuppung (Desquamation der Haut)” value is listed as “um die Hälfte reduziert”. Further, the “Desquamation der Humanhaut (Korneozyten-Abschuppung)” value (from here on “Desquamation der Humanhaut”) in experiment [1] was “signifikant reduziert”. Moreover, at Chymotrypsin (5 min, pH 7.8, inhibitor concentration 0,06 % (w/v), 25 °C, read-out: Hemmwirkung (Minderung der Chymotrypsin-Aktivität)), the inhibition at 0.06 % is 7%. Moreover, on Chymotrypsin (5 min, pH 7.8, inhibitor concentration 0,33 % (w/v), 25 °C, read-out: Hemmwirkung (Minderung der Chymotrypsin-Aktivität)), the inhibition at 0.33 % is 27%. For the same molecule, the “Hemmwirkung (Minderung der Chymotrypsin-Aktivität)” value at Chymotrypsin (setting [4]) was found to be 2%. Also, the “Hemmung von Chymotrypsin” value on Chymotrypsin is reported as “spezifische Hemmung”. Moreover, the “Hemmwirkung (Minderung der Trypsin-Aktivität)” value at Trypsin (setting [4]) is “keine Hemmwirkung messbar”; at Trypsin (inhibitor concentration 0,06 % (w/v), 25 °C) it was “-"-”; at Trypsin (inhibitor concentration 0,33 % (w/v), 25 °C) it was “-"-”. Besides, the “Hemmung von Trypsin” value at Trypsin was “nicht beeinträchtigt”.
Consider `NCCc1ccc(S(=O)(=O)F)cc1` [Pefabloc® SC, 4-(2-Aminoethyl)phenylsulfonylfluorid], for which the entries for the “Desquamation an Humanhaut ex vivo” value in experiment [1] (setting [2]) and in experiment [1] (setting [3]) were 34% and 11%, respectively. This molecule showed an Abschuppung reduziert um in experiment [1] (inhibitor 0,5 %, reduction versus positive control) of roughly 90%. The “Hemmung von Chymotrypsin” value was “starke, konzentrationsabhängige Hemmung” on Chymotrypsin and “effektiver Inhibitor” at Chymotrypsin (listed as Pefabloc®). Besides, the “Hemmung von Trypsin” value at Trypsin is reported as “starke, konzentrationsabhängige Hemmung”; at Trypsin (listed as Pefabloc®), “effektiver Inhibitor”.
With `OB(O)c1ccccc1` [Phenylboronsäure], the activity at 0.1 % in experiment [1] (setting [5]) stood at 60%. Besides, the activity at 0.05 % in experiment [1] (Homo sapiens, pH 8, inhibitor 0,05 % (w/v), corneocyte count, positive control = 100 %, 44 h, 37° C, read-out: Desquamation an Humanhaut ex vivo) is 89%. In experiment [1] (inhibitor 0,1 %, result in words), the “Reduktion der Abschuppung der Korneozyten” value is listed as “siginifikant reduzieren”. Moreover, in experiment [1], the “Desquamation der Humanhaut” value was “signifikant reduziert”. The results for the “Hemmwirkung (Minderung der Chymotrypsin-Aktivität)” value on Chymotrypsin (setting [6]), on Chymotrypsin (setting [7]) and at Chymotrypsin (setting [8]) were 9%, 45% and “keine Hemmung meßbar”, respectively. The “Hemmung von Chymotrypsin” value on Chymotrypsin is on record as “deutliche, konzentrationsabhängige Hemmung”. Also, the “Hemmwirkung (Minderung der Trypsin-Aktivität)” value is reported as “Keine Hemmung meßbar” on Trypsin (setting [6]), 5% at Trypsin (setting [7]), “Keine Hemmung meßbar” on Trypsin (setting [8]) and “Keine Hemmung meßbar” on Trypsin (setting [9]). Further, the “Hemmung von Trypsin” value on Trypsin is “nur mäßig beeinträchtigt”.
Turning to `O=C(/C=C/c1ccc(O)c(O)c1)O[C@H](Cc1ccc(O)c(O)c1)C(=O)O` [Rosmarinsäure], the activity at 0.1 % in experiment [1] (setting [5]) is 82.5%. Also, in experiment [1] (setting [10]), the activity at 0.5 % turned out to be 60%. In addition, the activity at 1 % in experiment [1] (setting [11]) turned out to be 33.8%. Moreover, the “Desquamation an Humanhaut ex vivo” value in experiment [1] (inhibitor 1,0 % (w/v), corneocyte count, positive control = 100 %, 44 h, 37° C) is 33,8%. The “Desquamation der Humanhaut” value in experiment [1] is on record as “konzentrationsabhängige Reduktion; also recorded: signifikant reduziert”. In addition, the “Hemmwirkung (Minderung der Chymotrypsin-Aktivität)” value at Chymotrypsin (setting [8]) is on record as “keine Hemmwirkung messbar”; at Chymotrypsin (setting [9]), 2%; at Chymotrypsin (inhibitor concentration 0,0075 % (w/v), 25 °C), 7%. For the same molecule, the “Hemmung von Chymotrypsin” value on Chymotrypsin is recorded as “gering”. Besides, the “Hemmwirkung (Minderung der Trypsin-Aktivität)” value at Trypsin (setting [6]) came to 61%. Besides, the “Hemmung von Trypsin” value at Trypsin is “starke, konzentrationsabhängige Hemmung”.
Consider `NC[C@H]1CC[C@H](C(=O)O)CC1` [t-AMCHA, trans-4(Aminomethyl)-cyclohexancarbonsäure], for which the activity at 0.5 % in experiment [1] (setting [10]) was 51.3%. For the same molecule, in experiment [1] (setting [11]), the activity at 1 % amounted to 44%. In experiment [1] (Homo sapiens, pH 8, inhibitor 2,5 % (w/v), corneocyte count, positive control = 100 %, 44 h, 37° C, read-out: Desquamation an Humanhaut ex vivo), the activity at 2.5 % was found to be 37.1%. For the same molecule, the “Desquamation der Humanhaut” value in experiment [1] is listed as “Desquamationsinhibitor mit konzentrationsabhängigem Profil; also recorded: signifikant reduziert”. The “Hemmwirkung (Minderung der Chymotrypsin-Aktivität)” value at Chymotrypsin (setting [6]) is given as “keine Hemmwirkung messbar”; on Chymotrypsin (inhibitor concentration 0,1 % (w/v), 25 °C), “- " -”; on Chymotrypsin (setting [7]), “- " -”; at Chymotrypsin (inhibitor concentration 0,5 % (w/v), 25 °C), “- " -”; at Chymotrypsin (inhibitor concentration 1,0 % (w/v), 25 °C), “- " -”. Further, the “Hemmung von Chymotrypsin” value at Chymotrypsin is on record as “nicht beeinträchtigt”. For the same molecule, the inhibition at 0.1 % at Trypsin (5 min, inhibitor concentration 0,1 % (w/v), 25 °C, read-out: Hemmwirkung (Minderung der Trypsin-Aktivität)) was 51%. For the same molecule, the inhibition at 0.05 % at Trypsin (5 min, inhibitor concentration 0,05 % (w/v), 25 °C, read-out: Hemmwirkung (Minderung der Trypsin-Aktivität)) was 36%. At Trypsin (5 min, inhibitor concentration 0,5 % (w/v), 25 °C, read-out: Hemmwirkung (Minderung der Trypsin-Aktivität)), the inhibition at 0.5 % was determined as 85%. In addition, on Trypsin (5 min, inhibitor concentration 1,0 % (w/v), 25 °C, read-out: Hemmwirkung (Minderung der Trypsin-Aktivität)), the inhibition at 1 % came to 93%. Moreover, the “Hemmwirkung (Minderung der Trypsin-Aktivität)” value on Trypsin (setting [6]) worked out at 9%. Moreover, the “Hemmung von Trypsin” value at Trypsin was “in Abhängigkeit von der Inhibitor-Konzentration beeinträchtigt”.
